Two molecules from article PMC11091976, “Shorter Peptide Nucleic Acid Probes Improve Affibody-Mediated Peptide Nucleic Acid-Based Pretargeting” (ACS Pharmacology & Translational Science, 2024) can be followed below.

For orientation: Tm means the temperature at which the thermal transition is half complete. As a reminder, the pKd is the Kd on a negative log10 scale, so that one unit is a factor of ten.

pKd: −log10 of the molar value.

One data set has as its system SKOV-3 xenografts. Nature of the data set: Biodistribution with preinjection of primary agent (pretargeting). Further details: species or system BALB/C nu/nu mice. The settings on record: mouse, in vivo. From the text: Biodistribution measurements of all radiolabeled PNA-based probes indicated rapid clearance from the blood as well as from other organs and tissues, which is a crucial requirement for the success of in vivo pretargeting strategies.
Animal studies were planned in agreement with EU Directive 2010/63/EU for animal experiments and Swedish national legislation concerning the protection of laboratory animals and were approved by the Ethics Committee for Animal Research in Uppsala, Sweden (animal permission C4/16). HER2-positive xenografts were implanted by subcutaneous injection of 10^7 SKOV-3 cells in the right hind legs of female BALB/C nu/nu mice. Three weeks after implantation, mice were randomized into 8 groups, with 4 mice in each group. At the time of the experiment, the average animal weight was 20 ± 1 g. The average tumor weight was 0.26 ± 0.14 g. The mice were euthanized at predetermined time points by overdose of Ketamine/Xylazine anesthesia, followed by heart puncture. The organs of interest such as blood, lung, liver, spleen, kidney, muscle, bone, and tumor were collected, weighed, and subsequently their radioactivity was measured. Organs and tumor uptake were calculated as the percentage of the injected dose per gram of the sample (%ID/g). […]

In the next data set the test system is HP15. Nature of the data set: UV melting of PNA:PNA duplex with primary probe HP15. The settings on record: UV 260 nm, 20-95 °C at 1 °C/min, 5 μM each probe, 10 mM phosphate buffer, 10 mM KCl, pH 7.4. Format: physicochemical. How it is done: The melting temperatures of secondary probes after duplex formation with primary probes were also measured by monitoring the absorbance at 260 nm as a function of temperature (see Figure S23). All probe pairs had melting temperatures well above 37 °C (body temperature) and ranged from 51 °C for the HP6:HP19 pair with 6 complementary bases to 82 °C for the previously studied HP15:HP18 pair with 15 complementary bases (see Figure 3B and Table 2). […] This secondary structure is typically adopted by antiparallel and L-amino acid-modified PNA–PNA duplexes at neutral pH.[49]
Figure S23: Normalized temperature melting profiles from 20–95°C for different primary and secondary probe pairs. UV melting curves at 260 nm. (A) HP15 (15-mer) toward secondary 15-, 12- and 9-mers. (B) HP12 (12-mer) toward secondary 12-, 9-, 8-, 7- and 6-mers. (C) HP9 (9-mer) toward secondary 9-, 8-, 7- and 6-mers. (D) HP6 (6-mer) toward secondary 6-mer.
Concentrations of duplexes in A–D are 5 μM in 10 mM […] with 10 mM KCl at pH 7.4.
(also on this page, place not known: Fraction melted Fraction meltedFraction melted Fraction melted) […]
Supplementary Material and methods […]
Biophysical characterization of PNA:PNA duplexes using CD Spectroscopy and […]
Circular dichroism (CD) and UV melts of PNA:PNA duplexes were measured on a CD spectrometer (Applied Photophysics, Leatherhead, UK) with Peltier temperature control and an external temperature probe. […]
from 20°C to 95°C with a 1°C/min temperature gradient. Simultaneously, the UV absorbance at 260 nm was recorded as a function of temperature. Fraction melted data was calculated […]
Fraction melted = 1 ― UVds― UVss , where UVss and UVds are the UV absorbances at 95°C and 20°C, respectively. The melting temperature (Tm) was determined as the maximum of the first derivative of the melting curve and was computed using the Global 3 analysis software (Applied Photophysics, […]
CD spectra in the range of 200–300 nm were recorded for all hybridized PNA:PNA pairs at 20°C before and after the UV melting experiments. […]

The subject of another data set is Z-HP9. Nature of the data set: Multicycle kinetic SPR, immobilized Z-HP9. The settings on record: MCK SPR. It counts as binding. How it is done:
We utilized SPR on a Biacore T200 instrument (Cytiva) to examine how secondary PNA probes (6-mer HP19, 7-mer HP21, 8-mer HP20, and 9-mer HP16) bind to primary agents. These experiments were conducted using dextran-coated CM5 sensor chips and PBS-T buffer at pH 7.4. The ligands were immobilized through a standard EDC/NHS coupling method, and the chip surface was sealed with ethanolamine. A reference surface with no primary agent was also included.
Association and dissociation times were set at 700 and 1800 s, respectively, with regeneration accomplished through a 30 s injection of 10 mM glycine-HCl, pH 1.5.
All SPR experiments were performed in duplicate, and data analysis was conducted using the Biacore T200 Evaluation software version 2.0 with a 1:1 binding model.

Consider `NC(=O)[C@H](Cc1ccc(O)cc1)NC(=O)[C@H](CCC(=O)O)NC(=O)[C@H](CCC(=O)O)NC(=O)CN(CCNC(=O)CN(CCNC(=O)CN(CCNC(=O)CN(CCNC(=O)CN(CCNC(=O)CN(CCNC(=O)CN(CCNC(=O)CN(CCNC(=O)CN(CCNC(=O)[C@H](CO)NC(=O)[C@H](CO)NC(=O)COCCOCCNC(=O)CN1CCN(CC(=O)O)CCN(CC(=O)O)CCN(CC(=O)O)CC1)C(=O)Cn1cnc2c(N)ncnc21)C(=O)Cn1cnc2c(N)ncnc21)C(=O)Cn1ccc(N)nc1=O)C(=O)Cn1cnc2c(N)ncnc21)C(=O)Cn1ccc(N)nc1=O)C(=O)Cn1ccc(N)nc1=O)C(=O)Cn1cnc2c(N)ncnc21)C(=O)Cn1cnc2c(=O)[nH]c(N)nc21)C(=O)Cn1cnc2c(=O)[nH]c(N)nc21` [[^177Lu]Lu-HP16, metal not drawn], for which the tumor-associated activity in the data set on SKOV-3 xenografts was 1.91 ± 0.831 %ID/g.

On to “DOTA-AEEA-SS-aacaccagg-EEY-NH2 [HP16, 9-mer secondary PNA probe with DOTA]”, for which, in the data set with HP15, the Tm is 73 °C. Moreover, the ka in the data set on Z-HP9 (primary probe HP9 (Z-HP9 immobilized), 25 °C, 1.4-70 nM, 1:1 model, duplicates) is recorded as 1.8 × 10^5 M^–1 s^–1; in the data set on Z-HP9 (primary probe HP9, 37 °C), 2.9 × 10^5 M^–1 s^–1. Besides, the pKd was 9.57 on Z-HP9 (primary probe HP9, 25 °C) and 9.41 on Z-HP9 (primary probe HP9, 37 °C). In addition, the kd on Z-HP9 (primary probe HP9, 25 °C) is 4.8 × 10^–5 s^–1; on Z-HP9 (primary probe HP9, 37 °C), 1.1 × 10^–4 s^–1.
